Experiments:
[1] = Inhibition of HCV 1a NS5B polymerase; set-up: species or system Hepatitis C virus subtype 1a
Hepatitis C virus [2] = assay: Inhibition of HCV 1b NS5B polymerase; set-up: species or system Hepatitis C virus subtype 1b
Hepatitis C virus [3] = assay: Antiviral activity against HCV 1b in presence of 5% fetal calf serum by replicon based assay; format: functional, organism-based, Hepacivirus hominis; conditions: genotype 1b
Hepatitis C virus [4] = assay: Antiviral activity against HCV 1a in presence of 5% fetal calf serum by replicon based assay; format: functional, organism-based, Hepacivirus hominis; conditions: subtype 1a
[5] = Half life in rat at 5 mg/kg, iv; format: ADME, organism-based; set-up: dose 5 mg/kg, route intravenous; conditions: in vivo
[6] = Volume of distribution at steady state in rat at 5 mg/kg, iv; format: ADME, organism-based; set-up: dose 5 mg/kg, route intravenous; conditions: in vivo, read-out: Vdss
[7] = Volume of distribution at terminal phase in rat at 5 mg/kg, iv; format: ADME, organism-based; set-up: dose 5 mg/kg, route intravenous; conditions: in vivo, read-out: Vbeta
[8] = AUC (0 to infinity) in rat at 5 mg/kg, iv; format: ADME, organism-based; set-up: time infinity, dose 5 mg/kg, route intravenous; conditions: plasma
[9] = Plasma clearance in rat at 5 mg/kg, iv; format: ADME, organism-based; set-up: dose 5 mg/kg, route intravenous
[10] = Cmax in rat plasma at 5 mg/kg, po; format: ADME, organism-based; set-up: dose 5 mg/kg, route oral
[11] = Tmax in rat at 5 mg/kg, po; format: ADME, organism-based; set-up: dose 5 mg/kg, route oral; conditions: in vivo
[12] = AUC (0 to infinity) in rat at 5 mg/kg, po; format: ADME, organism-based; set-up: time infinity, dose 5 mg/kg, route oral; conditions: plasma
[13] = Oral bioavailability in rat at 5 mg/kg; format: ADME, organism-based; conditions: in vivo
[14] = Drug level in rat liver at 5 mg/kg, po after 1 hr; format: ADME, organism-based; set-up: dose 5 mg/kg, route oral; conditions: read-out: Activity
[15] = Drug level in rat liver at 5 mg/kg, po after 6 hrs; format: ADME, organism-based; set-up: dose 5 mg/kg, route oral; conditions: read-out: Activity
[16] = Drug level in rat liver at 5 mg/kg, po after 12 hrs; format: ADME, organism-based; set-up: dose 5 mg/kg, route oral; conditions: read-out: Activity
[17] = Drug level in rat liver at 5 mg/kg, po after 24 hrs; format: ADME, organism-based; set-up: dose 5 mg/kg, route oral; conditions: read-out: Activity
[18] = Drug level in rat plasma at 5 mg/kg, po after 1 hr; format: ADME, organism-based; set-up: dose 5 mg/kg, route oral; conditions: read-out: Activity
[19] = Drug level in rat plasma at 5 mg/kg, po after 6 hrs; format: ADME, organism-based; set-up: dose 5 mg/kg, route oral; conditions: read-out: Activity
[20] = Drug level in rat plasma at 5 mg/kg, po after 12 hrs; format: ADME, organism-based; set-up: dose 5 mg/kg, route oral; conditions: read-out: Activity
[21] = Ratio of drug level in liver to plasma in rat at 5 mg/kg, po after 1 hr; format: ADME, organism-based; set-up: dose 5 mg/kg, route oral; conditions: other tissue
[22] = Ratio of drug level in liver to plasma in rat at 5 mg/kg, po after 6 hrs; format: ADME, organism-based; set-up: dose 5 mg/kg, route oral; conditions: other tissue
[23] = Ratio of drug level in liver to plasma in rat at 5 mg/kg, po after 12 hrs; format: ADME, organism-based; set-up: dose 5 mg/kg, route oral; conditions: other tissue
[24] = Half life in rat at 5 mg/kg, po; format: ADME, organism-based; set-up: dose 5 mg/kg, route oral; conditions: in vivo

Row | IC50 [1] | IC50 (Hepatitis C virus [2]) | EC50 (Hepatitis C virus [3]) | EC50 (Hepatitis C virus [4]) | Compound | other results
1 | 540 nM | – | 250 nM | – | CC(C)CCn1c(=O)c(C2=NS(=O)(=O)c3ccccc3N2)c(O)c2ccccc21 | –
2 | 990 nM | 2270 nM | – | – | CCCCC1(CCCC)C(=O)C(C2=NS(=O)(=O)c3ccccc3N2)=C(O)c2ccccc21 | –
3 | 820 nM | – | – | – | CC(C)CCC1(CCC(C)C)C(=O)C(C2=NS(=O)(=O)c3ccccc3N2)=C(O)c2ccccc21 | –
4 | 280 nM | 480 nM | 100 nM | – | O=c1c(C2=NS(=O)(=O)c3ccccc3N2)c(O)c2ccccc2n1NC1CCC1 | –
5 | 2200 nM | 6260 nM | – | – | CC1(C)C(=O)C(C2=NS(=O)(=O)c3ccccc3N2)=C(O)c2ccccc21 | –
6 | 2200 nM | – | – | – | CCCC1(CCC)C(=O)C(C2=NS(=O)(=O)c3ccccc3N2)=C(O)c2ccccc21 | –

The next lines start with the molecule.

Row | Compound | IC50 [1] | IC50 (Hepatitis C virus [2]) | EC50 (Hepatitis C virus [3]) | EC50 (Hepatitis C virus [4]) | other results
7 | CCCC1(CCC)C(=O)C(C2=NS(=O)(=O)c3cc(NS(C)(=O)=O)ccc3N2)=C(O)c2ccccc21 | 99 nM | 130 nM | 22 nM | – | –
8 | CCCC1(CCC)C(=O)C(C2=NS(=O)(=O)c3cc(OCC(N)=O)ccc3N2)=C(O)c2ccccc21 | 240 nM | – | 810 nM | > 10000 nM | –
9 | CC(C)CCC1(CCC(C)C)C(=O)C(C2=NS(=O)(=O)c3cc(OCC(N)=O)ccc3N2)=C(O)c2ccccc21 | 320 nM | – | > 3000 nM | 10100 nM | –
10 | CCCCC1(CCCC)C(=O)C(C2=NS(=O)(=O)c3cc(OCC(N)=O)ccc3N2)=C(O)c2ccccc21 | 260 nM | 330 nM | 290 nM | 9640 nM | –
11 | CCCCC1(CCCC)C(=O)C(C2=NS(=O)(=O)c3cc(NS(C)(=O)=O)ccc3N2)=C(O)c2ccccc21 | 10 nM | 73 nM | 48 nM | 280 nM | half-life [5]: 4.3 h; Vd [6]: 1.87 L/kg; Vd [7]: 6.11 L/kg; AUC(0-inf) [8]: 7300 ng·h/mL; clearance [9]: 11.7 mL/min/kg; Cmax [10]: 580 ng/mL; Tmax [11]: 3 h; AUC(0-inf) [12]: 6400 ng·h/mL; bioavailability [13]: 94.3%; concentration at 1 h [14]: 14200 ng/g; concentration at 6 h [15]: 20800 ng/g; concentration at 12 h [16]: 4600 ng/g; concentration at 24 h [17]: 150 ng/g; concentration at 1 h [18]: 450 ng/mL; concentration at 6 h [19]: 410 ng/mL; concentration at 12 h [20]: 250 ng/mL; Ratio [21]: 34.3 mL/g; Ratio [22]: 48.2 mL/g; Ratio [23]: 17.3 mL/g; half-life [24]: 4.3 h
12 | CC1(C)C(=O)C(C2=NS(=O)(=O)c3cc(NS(C)(=O)=O)ccc3N2)=C(O)c2ccccc21 | 930 nM | 6260 nM | – | – | –
13 | CC(C)CCC1(CCC(C)C)C(=O)C(C2=NS(=O)(=O)c3cc(NS(C)(=O)=O)ccc3N2)=C(O)c2ccccc21 | 68 nM | 390 nM | – | – | –
